Results taken from ChEMBL document CHEMBL6182843, “Actinomycetes: Treasure trove for discovering novel antibiotic candidates” (2025).
≈ marks a conversion by molar mass, not a printed value.

Experiments:
Format in all cases: functional
Enterococcus faecalis = assay: Antibacterial activity against Vancomycin-resistant Enterococcus faecalis ATCC 51299
Staphylococcus aureus [1] = assay: Antibacterial activity against Staphylococcus aureus ATCC 33591
[2] = system: Staphylococcus epidermidis; assay: Antimicrobial activity against Staphylococcus epidermidis ATCC 12228 assessed as reduction in microbial growth incubated for 16 hrs by CLSI protocol based Mueller-Hinton broth micro-dilution method
Staphylococcus aureus [3] = assay: Antimicrobial activity against Staphylococcus aureus ATCC 29213 assessed as reduction in microbial growth incubated for 16 hrs by CLSI protocol based Mueller-Hinton broth micro-dilution method
Staphylococcus aureus [4] = assay: Antibacterial activity against Staphylococcus aureus ATCC 33592 assessed as reduction in microbial growth
Staphylococcus aureus [5] = assay: Antibacterial activity against Staphylococcus aureus ATCC 25923 assessed as reduction in microbial growth
Bacillus subtilis [6] = assay: Antibacterial activity against Bacillus subtilis ATCC 6633 assessed as reduction in microbial growth
Bacillus cereus [7] = assay: Antibacterial activity against Bacillus cereus ATCC 11778 assessed as reduction in bacterial growth
Escherichia coli [8] = assay: Antibacterial activity against Escherichia coli
Staphylococcus aureus [9] = assay: Antibacterial activity against methicillin-resistant Staphylococcus aureus
Bacillus subtilis [10] = assay: Antibacterial activity against Bacillus subtilis
Staphylococcus aureus [11] = assay: Antibacterial activity against Staphylococcus aureus
Xanthomonas oryzae = assay: Antibacterial activity against Xanthomonas oryzae
Xanthomonas campestris = assay: Antibacterial activity against Xanthomonas campestris
Escherichia coli [12] = assay: Antibacterial activity against Escherichia coli ATCC 25922 assessed as reduction in microbial growth incubated for 24 hrs by CLSI protocol based analysis
Staphylococcus aureus [13] = assay: Antibacterial activity against Staphylococcus aureus assessed as reduction in microbial growth incubated for 24 hrs by CLSI protocol based analysis
Bacillus cereus [14] = assay: Antibacterial activity against Bacillus cereus
Escherichia coli [15] = assay: Antibacterial activity against […] Escherichia coli ATCC 25922 assessed as reduction in bacterial growth measured for 12 hrs by CLSI protocol based broth microdilution method

COc1cc2oc3c(O)c4c(c(O)c3c(=O)c2cc1O)-c1c(cc2cc(C)[nH]c(=O)c2c1O)CC4
MIC (Enterococcus faecalis): 0.03 µg/mL (≈ 0.0634 µM)
MIC (Staphylococcus aureus [1]): 0.03 µg/mL (≈ 0.0634 µM)

C/C=C1\NC(=O)[C@@H](CC)NC(=O)CNC(=O)[C@@](C)(C(C)=O)NC(=O)[C@H](Cc2c[nH]c3cccc(OC)c23)NC(=O)c2csc(n2)[C@@H](C)NC(=O)CNC1=O
MIC [2]: 1.6 µM
MIC (Staphylococcus aureus [3]): 3.1 µg/mL

CC[C@H](C)[C@@H]1NC(=O)[C@@H](Cc2c[nH]c3cc(Br)ccc23)NC(=O)[C@@H](Cc2c[nH]c3ccc(Br)cc23)NC(=O)[C@@H](CO)NC(=O)[C@@H](CCC(=O)O)NC(=O)[C@@H](C(C)C)NC1=O
MIC (Staphylococcus aureus [4]): > 100 µg/mL
MIC (Staphylococcus aureus [5]): 25 µg/mL
MIC (Bacillus subtilis [6]): 1.6 µg/mL

C[C@@H]1C[C@@]2(C)O[C@]1(O)[C@@H]1C(=O)O[C@@]34C[C@@H](C)[C@@]5(C)O[C@@]13C(=C[C@@H]4C5O)C2=O (some centres undefined)
MIC (Bacillus cereus [7]): 50 µg/mL (≈ 133 µM)

C=CC(C)(C)ON(CCCCCCC(O)CCCCC(O)c1nc(CCCNC(=N)NCC=C(C)C)c(OC)nc1C(O)CCNC(=N)NCC=C(C)C)C(=N)N (centres undefined)
MIC (Escherichia coli [8]): 2 µg/mL (≈ 2.49 µM)
MIC (Staphylococcus aureus [9]): 2 µg/mL (≈ 2.49 µM)

COC(=O)/C(C)=C/CC[C@H](OC)[C@@H](OC(N)=O)/C(C)=C/[C@H](C)[C@@H](O)[C@H](C[C@H](C)CC1=C(OC)C(=O)C2=C(NC(=O)[C@@H](C)S2)C1=O)OC
MIC (Bacillus subtilis [10]): 64 µg/mL (≈ 94 µM)
MIC (Staphylococcus aureus [11]): 64 µg/mL (≈ 94 µM)

COC(=O)[C@@]1(O)C[C@@H](C)C[C@H](OC)[C@H](O)[C@@H](C)C/C=C(/C)[C@H](OC(N)=O)[C@@H](OC)/C=C\C=C(/C)C(=O)NC2=CC(=O)O[C@]21O
MIC (Xanthomonas oryzae): 4.06 µg/mL (≈ 6.5 µM)
MIC (Xanthomonas campestris): 8.12 µg/mL (≈ 13 µM)

COc1cc2oc3c(c(=O)c2cc1O)C(=O)C1=C(CCc2cc4cc(C)[nH]c(=O)c4c(O)c21)C3=O
MIC (Enterococcus faecalis): 0.25 µg/mL (≈ 0.53 µM)
MIC (Staphylococcus aureus [1]): 0.12 µg/mL (≈ 0.255 µM)

CC[C@H](C)C[C@@]1(O)C(=O)C[C@H](O)[C@](C)(O)/C=C(\C)[C@@H](O)/C(C)=C/C(C)=C/C[C@@H](CO[C@@H]2O[C@H](CO)[C@@H](O)[C@H](O)[C@H]2O)OC(=O)C[C@@H](O)CNC1=O
MIC (Escherichia coli [12]): 27.9 µg/mL
MIC (Staphylococcus aureus [13]): 21 µg/mL

CC[C@H](C)[C@@H]1NC(=O)[C@@H](Cc2c[nH]c3cc(Cl)ccc23)NC(=O)[C@@H](Cc2c[nH]c3ccc(Cl)cc23)NC(=O)[C@@H](CO)NC(=O)[C@@H](CCC(=O)O)NC(=O)[C@@H](C(C)C)NC1=O
MIC (Staphylococcus aureus [4]): 1.6 µg/mL
MIC (Staphylococcus aureus [5]): 3.1 µg/mL
MIC (Bacillus subtilis [6]): 1.6 µg/mL

C=CC(C)(C)ON(CCCCCCC(O)CCCCC(O)c1nc(CCCNC(=N)NCC=C(C)C)c(OC)nc1CCCNC(=N)NCC=C(C)C)C(=N)N (centres undefined)
MIC (Escherichia coli [8]): 4 µg/mL (≈ 5.09 µM)
MIC (Staphylococcus aureus [9]): 3 µg/mL (≈ 3.82 µM)

O=C1c2ccc3cc([C@@H](O)CO)cc(O)c3c2C(=O)c2cccc(O)c21
MIC (Bacillus subtilis [10]): 0.78 µg/mL (≈ 2.23 µM)
MIC (Escherichia coli [8]): 1.56 µg/mL (≈ 4.45 µM)
MIC (Staphylococcus aureus [9]): 0.39 µg/mL (≈ 1.11 µM)

COC1=C(CC2=C(C)CC(C)(C)CC2)C(=O)c2c(cc(O)c(C)c2O)C1=O
MIC (Bacillus cereus [14]): 50 µg/mL (≈ 135 µM)

CSc1c(C(C)C)c(=O)c2cc(O)c3c(=O)c4c(O)cccc4c(=O)c3c2c1=O
MIC (Staphylococcus aureus [9]): 3.12 µg/mL (≈ 7.65 µM)

C=CC(C)(C)ON(CCCCCCCCCCCC(O)c1nc(CCCNC(=N)NCC=C(C)C)c(OC)nc1C(O)CCNC(=N)NCC=C(C)C)C(=N)N (centres undefined)
MIC (Escherichia coli [8]): 0.5 µg/mL (≈ 0.636 µM)
MIC (Staphylococcus aureus [9]): 0.5 µg/mL (≈ 0.636 µM)

CC(=O)[C@@H](C)N(CCc1c[nH]c2ccccc12)C(C)=O
MIC (Escherichia coli [15]): 7 µg/mL (≈ 25.7 µM)

C=CC(C)(C)ON(CCCCCCCCCCCCc1nc(CCCNC(=N)N)c(OC)nc1CCCNC(=N)N)C(=N)N
MIC (Escherichia coli [8]): 1 µg/mL (≈ 1.62 µM)
MIC (Staphylococcus aureus [9]): 1 µg/mL (≈ 1.62 µM)

Cc1c(O)cc2c(c1O)C(=O)C(C[C@@]13CCC(C)(C)C[C@]1(C)O3)=C(Cl)C2=O
MIC (Bacillus cereus [14]): 12.5 µg/mL (≈ 32 µM)
MIC (Staphylococcus aureus [11]): 25 µg/mL (≈ 64 µM)

CC1C[C@@](C)(C(=O)[C@]23C=C[C@@]45C[C@H](C)[C@@](C)(O[C@]42CC(=O)O5)[C@H]3O)OC1=O (some centres undefined)
MIC (Bacillus cereus [7]): 25 µg/mL (≈ 66.4 µM)

CC[C@H](C)C[C@]1(O)C(=O)NC[C@H](O)CC(=O)O[C@H](CO[C@@H]2O[C@H](CO)[C@@H](O)[C@H](O)[C@H]2O)CC/C=C(\C)[C@H]2C(C)=C[C@@]3(C)O[C@H]4C[C@]1(O)O[C@@]4(C)[C@@H]23
MIC (Escherichia coli [12]): 15.7 µg/mL
MIC (Staphylococcus aureus [13]): 11.6 µg/mL

CC(=O)OC1[C@H]2C=C3C(=O)[C@@]4(C)C[C@@H](C)[C@](O)(O4)[C@@H]4C(=O)O[C@]25C[C@@H](C)[C@@]1(C)O[C@@]345 (some centres undefined)
MIC (Bacillus cereus [7]): > 50 µg/mL

C[C@H]1[C@H](NC(=O)/C(=N\OC(C)(C)C(=O)O)c2csc(N)n2)C(=O)N1S(=O)(=O)O [AZTREONAM]
MIC (Escherichia coli [8]): 0.25 µg/mL (≈ 0.574 µM)
MIC (Staphylococcus aureus [9]): 0.25 µg/mL (≈ 0.574 µM)

O=C(N[C@H](CO)[C@H](O)c1ccc([N+](=O)[O-])cc1)C(Cl)Cl [CHLORAMPHENICOL]
MIC (Staphylococcus aureus [9]): 3.12 µg/mL (≈ 9.66 µM)

COc1c(O)cc2cc1C[C@@H](C)C[C@H](OC)[C@H](O)[C@@H](C)/C=C(\C)[C@H](OC(N)=O)[C@@H](OC)CC/C=C(\C)C(=O)N2 [REBLASTATIN]
MIC (Xanthomonas oryzae): 4.06 µg/mL (≈ 7.4 µM)
MIC (Xanthomonas campestris): 0.125 µg/mL (≈ 0.228 µM)
